Our source for the Relative activity values is US8008461B2, “Carbonyl reductase, gene therefor and use thereof” (Kaneka Corporation, priority 2004, dated 2011).

In this test the test system is purified polypeptide (carbonyl reductase). The experiment in a line: Substrate specificity of polypeptide (NADPH-dependent reduction of carbonyl compounds). Type of test: biochemical, Candida magnoliae strain NBRC0661. As to conditions: 1 mM substrate, 0.25 mM NADPH, pH 6.5, 30° C.; relative to activity to 3-oxo-3-phenylpropanenitrile.
Regarding `CCOC(=O)CC(C)=O` [ethyl acetoacetate], the Relative activity is 903%.
For `CC(=O)CCO` [4-hydroxy-2-butanone], the Relative activity worked out at 301%.
Then `CC(=O)c1cccc([N+](=O)[O-])c1` [m-nitroacetophenone], with 5056%; and `CC(=O)c1cccnc1` [3-acetylpyridine], with 2107%.
To `N#CCC(=O)c1ccccc1` [3-oxo-3-phenylpropanenitrile] belongs 100%; to `CC(=O)CO` [hydroxyacetone], 361%; to `O=C(O)CC(=O)C(=O)O` [oxalacetic acid], 421%.
To `CCC(=O)C(=O)O` [2-keto-n-butyric acid] belongs 1866%; to `COC(=O)C(C)=O` [methyl pyruvate], 9450%; to `CC(=O)c1ccccc1` [acetophenone], 1023%.
Turning to `O=C(CO)c1ccccc1` [2-hydroxyacetophenone], the Relative activity is listed as 1806%.
Then `CCOC(=O)CC(=O)c1ccccc1` [ethyl benzoylacetate], with 7704%; and `COc1ccc(C(C)=O)cc1OC` [3,4-dimethoxyacetophenone], with 2889%; and `CCOC(=O)CC(=O)CCl` [ethyl 4-chloroacetoacetate], with 8547%.
To `CC(=O)C1CC1` [cyclopropyl methyl ketone] belongs 181%; to `CCC(C)=O` [2-butanone], 181%; to `CC(=O)CC(C)C` [4-methyl-2-pentanone], 60%.
To `CCC(=O)c1ccccc1` [propiophenone] belongs 3010%; to `CC(=O)CCc1ccccc1` [benzylacetone], 241%; to `CCC(=O)Cc1ccccc1` [1-phenyl-2-butanone], 1144%.
Regarding `CC(=O)c1ccncc1` [4-acetylpyridine], the Relative activity came out at 15710%.
Then `CC(=O)CC(=O)OCc1ccccc1` [benzyl acetoacetate], with 4936%; and `CC(=O)c1ccccn1` [2-acetylpyridine], with 1926%; and `O=C(CCl)c1cccc(Cl)c1` [2-chloro-1-(3′-chlorophenyl)ethanone], with 10473%.
To `CC(=O)c1ccc(Cl)cc1` [p-chloroacetophenone] belongs 2347%.
For `CC(=O)c1ccc(F)cc1` [p-fluoroacetophenone], the Relative activity was 722%.
Then `CCCCC(C)=O` [2-hexanone], with 602%.
`CCCCCC(C)=O` [2-heptanone]: the Relative activity came out at 782%.
`CC(=O)c1ccc(C)cc1` [p-methylacetophenone]: the Relative activity came to 542%.
